From patent US20030229113A1, “Keratinocyte growth inhibitors and hydroxamic acid derivatives” (priority 2003, published 2003)
Like-named read-outs stand apart in the source and are kept apart here.

Legend:
[1] = tested on: solubilizing enzyme of HB-EGF; assay: Inhibition of TPA-stimulated release of HB-EGF from HT-1080 transfectant expressing HB-EGF/alkaline phosphatase fusion protein; format: cell-based, human; conditions: HT-1080 HB-EGF-AP transfectant, TPA 60 nM for 60 min, AP activity in conditioned medium (OD405)
Procedure: Human fibrosarcoma HT-1080 stable transfectant expressing fusion protein of HB-EGF and human placental alkaline phosphatase (AP) were used for following experiments.
The cultured transfectant was treated with Trypsin-EDTA solution, and suspended in Minimum Essential Medium (without phenol red; supplemented with 10% heat-inactivated fetal calf serum; MEM) at the concentration of 1×10^5 cells/ml. Each 0.2 ml of the cell suspension was dispensed into individual wells of 96 well microplate, and incubated overnight in the CO2 incubator (37° C.). After the incubation, the conditioned medium was removed, and the wells were washed once with 0.2 ml of phosphate buffered saline. The cells were treated with 0.1 ml of compound solution [compound solutions in dimethylsulfoxide (DMSO) were diluted 100 times with MEM] for 30 min at 37° C. Then the compound solutions were removed, and cells were treated with 0.2 ml of TPA solution (120 μM) of stock solution was diluted to 60 nM with MEM) containing same concentration of the compound for 60 min at 37° C. The cells treated same procedure without compound were used as control.
After these treatments, each 0.1 ml of conditioned medium was transferred to individual wells of new 96 well microplate and incubated at 65° C. for 10 min to inactivate endogenous alkaline phosphatase. One hundred microliter of substrate solution (1 mg/ml of p-nitrophenyl phosphate in 0.01% magnesium chloride/1 M diethanolamine) for AP was added to each well and incubated for 120 min at room temperature in the dark. The OD405 of each well was measured with microplate reader. The IC50 values of the compounds were calculated from the concentration-inhibition curves.

[2] = tested on: epidermal hyperplasia induced by TPA; assay: TPA-induced epidermal hyperplasia on dorsal skin of mice; format: in vivo, male BALB/c mice; conditions: ED50; topical in acetone at 1 minute, 24 and 48 hours after TPA; epidermal thickness 72 hours after TPA
Procedure: After backs of male BALB/c mice were shaved, 20 micro 1 of TPA-acetone solution (50 μM) was applied to the dorsal skin surface in an area of ca. 1 cm^2. A volume of 20 micro 1 of test compound-acetone solution was applied to the same area a minute, 24 hours and 48 hours after TPA application (the treated group). In the non-treated group, acetone was applied instead of the test compound. In the control group, acetone was applied instead of TPA and the test compound. The mice were sacrificed, and the skin tissues treated with TPA or the test compound were excised 72 hours after TPA application. Then the tissues were fixed with 10% formalin and embedded in paraffin according to the conventional method. The vertical sections including the center of the TPA- or the test compound-treated area were prepared and they were stained by hematoxylin-eosin. The epidermal thickness was measured using an ocular microscope. The amount of the test compound required for achieving 50% inhibition against the mean epidermal thickness of the non-treated group (ED50) was calculated, wherein the mean epidermal thickness of the non-treated group was 100% and that of the control group was 0%.

| Compound | IC50 ([1]; read-out: IC50) [µM] | Amount of test compound required for 50% suppression of epidermal hyperplasia [2] | IC50 [1] [µM] |
| --- | --- | --- | --- |
| CNC(=O)C(Cc1cccc2ccccc12)NC(=O)C(CC(=O)NO)CC(C)C [the compound d, [4-(N-hydroxyamino)-2 (R)-isobutylsuccinyl]-L-3-(1-naphtyl)-alanine-N-methylamide, reference compound] | 1.7 | 40 10^−6 g/cm^2 |  |
| O=C(NO)C1Cc2nccnc2CN1S(=O)(=O)c1cccs1 (single isomer, unassigned; (+)) [the compound(46), (+)-N-Hydroxy-6-[(thiophen-2-yl)sulfonyl]-5,6,7,8-tetrahydropyrido[3,4-b]pyrazine-7-carboxamide] |  | 69 10^−6 g/cm^2 | 0.96 |
| CNC(=O)[C@@H](NC(=O)[C@H](CC(C)C)C(CN1CCc2ccccc2C1)C(=O)NO)c1ccccc1 (stereo partly drawn) [the compound c, [4-(N-hydroxyamino)-2 (R)-isobutyl-3-(1,2,3,4-tetrahydro-isoquinolylmethyl)succinyl]-L-phenylglycine —N-methylamide, reference compound] | 0.054 | 190 10^−6 g/cm^2 |  |
| CS(=O)(=O)CCCOc1ccc(S(=O)(=O)N2Cc3nccnc3CC2C(=O)NO)cc1 (single isomer, unassigned; (+)) [the compound(48), (+)-N-Hydroxy-6-[4-(3-methansulfonylpropoxy)benzenesulfonyl]-5,6,7,8-tetrahydropyrido[3,4-b]pyrazine-7-carboxamide] | 1.8 |  |  |
| CSCCCOc1ccc(S(=O)(=O)N2Cc3nccnc3CC2C(=O)NO)cc1 (racemic) [the compound(10), (±)-N-Hydroxy-6-[4-(3-methylthiopropoxy)benzenesulfonyl]-5,6,7,8-tetrahydropyrido[3,4-b]pyrazine-7-carboxamide] |  |  | 0.34 |
| CC(C)COCCCOc1ccc(S(=O)(=O)N2Cc3nccnc3CC2C(=O)NO)cc1 (single isomer, unassigned; (+)) [the compound(26), (+)-N-Hydroxy-6-[4-(3-isobuthoxypropoxy)benzenesulfonyl]-5,6,7,8-tetrahydropyrido[3,4-b]pyrazine-7-carboxamide] | 0.56 |  |  |
| O=C(NO)C1Cc2nccnc2CN1S(=O)(=O)c1ccc(Oc2ccccc2)cc1 (racemic) [the compound(3), (±)-N-Hydroxy-6-(4-phenoxybenzenesulfonyl)-5,6,7,8-tetrahydropyrido[3,4-b]pyrazine-7-carboxamide] | 1 |  |  |
| COCCCCOc1ccc(S(=O)(=O)N2Cc3nccnc3CC2C(=O)NO)cc1 (racemic) [the compound(11), (±)-N-Hydroxy-6-[4-(methoxybutoxy)benzenesulfonyl]-5,6,7,8-tetrahydropyrido[3,4-b]pyrazine-7-carboxamide] | 1.4 |  |  |
| COc1ccc(S(=O)(=O)N2C(C)c3nccnc3C(C)C2C(=O)NO)cc1 (stereo not drawn) [the compound(49), 7,8-cis-N-Hydroxy-5,8-dimethyl-6-(4-methoxybenzenesulfonyl)-5,6,7,8-tetrahydropyrido[3,4-b]pyrazine-7-carboxamide] | 5.6 |  |  |
| CCOCCCOc1ccc(S(=O)(=O)N2Cc3nccnc3CC2C(=O)NO)cc1 (single isomer, unassigned; (+)) [the compound(23), (+)-N-Hydroxy-6-[4-(3-ethoxypropoxy)benzenesulfonyl]-5,6,7,8-tetrahydropyrido[3,4-b]pyrazine-7-carboxamide] | 0.092 |  |  |
| CCOC(=O)CCCOc1ccc(S(=O)(=O)N2Cc3nccnc3CC2C(=O)NO)cc1 (single isomer, unassigned; (+)) [the compound(32), (+)-N-Hydroxy-6-[4-(3-ethoxycarbonylpropoxy)benzenesulfonyl]-5,6,7,8-tetrahydropyrido[3,4-b]pyrazine-7-carboxamide] | 1.1 |  |  |

The next lines start with results.

| IC50 ([1]; read-out: IC50) [µM] | Compound | Amount of test compound required for 50% suppression of epidermal hyperplasia [2] | IC50 [1] [µM] |
| --- | --- | --- | --- |
| 0.036 | CCOCCOc1ccc(S(=O)(=O)N2Cc3nccnc3CC2C(=O)NO)cc1 (single isomer, unassigned; (+)) [the compound(27), (+)-N-Hydroxy-6-[4-(2-ethoxyethoxy)benzenesulfonyl]-5,6,7,8-tetrahydropyrido[3,4-b]pyrazine-7-carboxamide] | 58 10^−6 g/cm^2 |  |
| 1.5 | O=C(NO)C1Cc2nccnc2CN1S(=O)(=O)c1ccc(-c2ccccc2)cc1 (single isomer, unassigned; (+)) [the compound(40), (+)-N-Hydroxy-6-(biphenyl-4-sulfonyl)-5,6,7,8-tetrahydropyrido[3,4-b]pyrazine-7-carboxamide] | 20 10^−6 g/cm^2 |  |
| 0.33 | O=C(NO)C1Cc2nccnc2CN1S(=O)(=O)c1ccc(OC(F)(F)F)cc1 (single isomer, unassigned; (+)) [the compound(17), (+)-N-Hydroxy-6-(4-trifluoromethoxybenzenesulfonyl)-5,6,7,8-tetrahydropyrido[3,4-b]pyrazine-7-carboxamide] | 48 10^−6 g/cm^2 |  |
| 1.8 | Nc1ccc(S(=O)(=O)N2Cc3nccnc3CC2C(=O)NO)cc1 (single isomer, unassigned; (+)) [the compound(39), (+)-N-Hydroxy-6-(4-aminobenzenesulfonyl)-5,6,7,8-tetrahydropyrido[3,4-b]pyrazine-7-carboxamide] |  |  |
| 0.81 | O=C(NO)C1Cc2nccnc2CN1S(=O)(=O)c1ccc(F)cc1 (single isomer, unassigned; (+)) [the compound(37), (+)-N-Hydroxy-6-(4-fluorobenzenesulfonyl)-5,6,7,8-tetrahydropyrido[3,4-b]pyrazine-7-carboxamide] | 120 10^−6 g/cm^2 |  |
| 0.46 | CCCCCOc1ccc(S(=O)(=O)N2Cc3nccnc3CC2C(=O)NO)cc1 (racemic) [the compound(9), (±)-N-Hydroxy-6-(4-pentyloxybenzenesulfonyl)-5,6,7,8-tetrahydropyrido[3,4-b]pyrazine-7-carboxamide] |  |  |
| 2.7 | Cc1ccc(S(=O)(=O)N2Cc3nccnc3CC2C(=O)NO)cc1 (single isomer, unassigned; (+)) [the compound(31), (+)-N-Hydroxy-6-(4-methylbenzenesulfonyl)-5,6,7,8-tetrahydropyrido[3,4-b]pyrazine-7-carboxamide] |  |  |
| 1.1 | C=Cc1ccc(S(=O)(=O)N2Cc3nccnc3CC2C(=O)NO)cc1 (single isomer, unassigned; (+)) [the compound(44), (+)-N-Hydroxy-6-(4-vinylbenzenesulfonyl)-5,6,7,8-tetrahydropyrido[3,4-b]pyrazine-7-carboxamide] |  |  |
| 0.84 | COCCOc1ccc(S(=O)(=O)N2Cc3nccnc3CC2C(=O)NO)cc1 (racemic) [the compound(8), (±)-N-Hydroxy-6-[4-(2-methoxyethoxy)benzenesulfonyl]-5,6,7,8-tetrahydropyrido[3,4-b]pyrazine-7-carboxamide] |  |  |
| 1 | CCOC(=O)COc1ccc(S(=O)(=O)N2Cc3nccnc3CC2C(=O)NO)cc1 (single isomer, unassigned; (+)) [the compound(30), (+)-N-Hydroxy-6-(4-ethoxycarbonylmethoxy-benzenesulfonyl)-5,6,7,8-tetrahydropyrido[3,4-b]pyrazine-7-carboxamide] |  |  |
| 1.7 | CCCCCCc1ccc(S(=O)(=O)N2Cc3nccnc3CC2C(=O)NO)cc1 (single isomer, unassigned; (+)) [the compound(38), (+)-N-Hydroxy-6-(4-hexylbenzenesulfonyl)-5,6,7,8-tetrahydropyrido[3,4-b]pyrazine-7-carboxamide] |  |  |
| 2.8 | CC(C)(C)C(=O)Oc1ccc(S(=O)(=O)N2Cc3nccnc3CC2C(=O)NO)cc1 (single isomer, unassigned; (+)) [the compound(28), (+)-N-Hydroxy-6-(4-pivaloyloxybenzenesulfonyl)-5,6,7,8-tetrahydropyrido[3,4-b]pyrazine-7-carboxamide] |  |  |
| 0.2 | N#CCCOc1ccc(S(=O)(=O)N2Cc3nccnc3CC2C(=O)NO)cc1 (single isomer, unassigned; (+)) [the compound(29), (+)-N-Hydroxy-6-[4-(2-cyanoethoxy)benzenesulfonyl]-5,6,7,8-tetrahydropyrido[3,4-b]pyrazine-7-carboxamide] |  |  |
